{
  "source": "patent US5525627A",
  "about": "“Esters of acyl carnitines with long-chain aliphatic alcohols and pharmaceutical compositions containing same having antimycotic activity” (Sigma-Tau Industrie Farmaceutiche Riunite S.p.A., priority 1992, dated 1996)",
  "key": {"[1]": {"test_system": "peritoneal macrophages", "assay": "Test 4: peritoneal macrophage number in mice", "assay_type": "in vivo, mice (male B6 D2 F1)", "settings": "100 mg/kg/day oral, 5 consecutive days", "method": "Test 4: Evaluation of the effect of repeated oral administrations of ST 722 on the peritoneal macrophage number in mice.\nMale B6 D2 F1 mice (C. River) aged 10 weeks (6 animals each group) were orally treated with the substance ST 722 at the dose of 100 mg/kg/day for 5 consecutive days. Twenty-four hours after the last administration, the animals were sacrificed, the peritoneal exudate cells (PEC) collected and the macrophage number determined."}, "[2]": {"assay": "Assessment of behaviour and mortality in mice (Irwin's method)", "design": "species or system mice (male Crl:(CD-1)(ICR)BR)", "settings": "mouse, in vivo; oral, dose 1000 (unit inferred), 4 animals/dose", "method": "(§1) ASSESSMENT OF BEHAVIOUR AND MORTALITY IN MICE\n(§2) The assessment of normal behaviour in mice was carried out following S. Irwin's method (Psychopharmacologia, 13, 222 [1968]). This method allows alterations in some behavioural, neurophysiologic and neurovegetative parameters to be detected, which are directly observable by the researcher. The study was conducted using male Crl:(CD-1)(ICR)BR mice (Charles River-Italy) weighing 22-25 g. following oral administration of the compounds suspended in carboxymethylcellulose (0.5% by weight in H2 O) to groups of 4 animals/dose.\n(§3) The animals were continously kept under observation for five hours following treatment and twice a day in the subsequent five days. Mortality was also observed during the overall test period."}, "[3]": {"test_system": "mice", "assay": "Assessment of behaviour and mortality in mice (Irwin's method)", "design": "species or system mice (male Crl:(CD-1)(ICR)BR)", "settings": "mouse, in vivo, po", "method": "as §1, §2, §3"}, "[4]": {"assay": "Test 2: weight of murine lymphoid organs after repeated oral administrations", "assay_type": "in vivo, mice (male B6 D2 F1)", "settings": "100 mg/kg/day oral, 7 consecutive days; x ± S.E.", "method": "Test 2: Evaluation of the effect of repeated oral administrations of ST 722 on the weight of murine lymphoid organs (spleen and thymus).\nMale B6 D2 F1 mice (C. River) aged 7 weeks (7-8 animals each group) were orally treated with the substance ST 722 at the dose of 100 mg/kg/day for 7 consecutive days. Twenty-four hours after the last administration, the animals were sacrificed, the organs removed and weighed."}},
  "data": [
    {"compound": "CCCCCCCCCCCOC(=O)C[C@H](C[N+](C)(C)C)OC(=O)CC(C)C", "note": "[ST 722, isovaleryl-L-carnitine undecyl ester chloride]", "values": [
      {"measurement": "toxic effect in PEC macrophage population", "setting": "[1]", "value": "No toxic effect has been observed"},
      {"measurement": "PEC Mo", "setting": "[1]; 6 pooled samples", "value": 63, "unit": "%"},
      {"measurement": "Body weight", "setting": "[1]; ± S.E., 6 animals", "value": "28.13 ± 1.30", "unit": "g"},
      {"measurement": "increase in the peritoneal macrophages number", "setting": "[1]; versus control", "value": "about 60%"},
      {"measurement": "mortality at 120 h", "setting": "[2]", "value": 0, "unit": "%"},
      {"measurement": "Symptoms", "setting": "[3]", "value": "salivation, diarrhoea"},
      {"measurement": "Body weight", "setting": "[4]", "value": "22.74 ± 0.37", "unit": "g"},
      {"measurement": "Spleen weight", "setting": "[4]", "value": "77.88 ± 2.38", "unit": "mg"},
      {"measurement": "Thymus weight", "setting": "[4]", "value": "52.88 ± 3.20", "unit": "mg"}
    ]}
  ]
}
